The values that follow are results of earlier work, collected in patent US8563018B2, “Foamable pesticide compositions” (priority 2009, dated 2013).

One series has as its system termites. The note with it: in vivo.
The subject of the next series is ants. To be noted: in vivo.

Consider `N#Cc1nn(-c2c(Cl)cc(C(F)(F)F)cc2Cl)c(N)c1[S+]([O-])C(F)(F)F` (racemic) [Fipronil, (±)-5-amino-1-(2,6-dichloro-α,α,α-trifluoro-p-tolyl)-4-trifluoromethylsulfinylpyrazole-3-carbonitrile], for which the “dose toxic to termites” value in the series with termites is 2 nanograms per termite. The “dose toxic to ants” value in the series on ants is on record as “about 1 nanogram per ant”.
